Here are results for 29 compounds from patent US20240109853A1 (Shanghai Yao Yuan Biotechnology Co., Ltd., priority 2020, published 2024).

The target of this assay is ALPK1 (Homo sapiens (Human), UniProt Q96QP1). The experiment in a line: ALPK1 in vitro kinase assay (HTRF of TIFA phosphorylation). Format: biochemical. An excerpt:
In embodiments, a compound of Formula I, or a subembodiment described herein, is an inhibitor of ALPK1 as measured, for example, in an in vitro kinase assay, or an assay designed to measure the activation of downstream targets of ALPK1 pathway activation, for example NFkB transcriptional activation and the secretion of proinflammatory cytokines and chemokines, such as IL-8, which is also referred to as CXCL-8. In general, the computer program XL fit was used for data analysis, including non-linear regression analysis. The half maximal inhibitory concentration (IC50) was used as the measure of a compound's effectiveness in the assays. IC50 values were determined using the following logistic equation Y=min+(max−min)/(1+(X/IC50^−hillslpoe), where Y is the value at the compound concentration, X. The concentration response curve fitting was conducted using GraphPad Prism version 6.00 software.
ALPK1 kinase activity was measured in an in vitro assay using ADP-Heptose as the ALPK1 ligand and activator of its kinase activity and TIFA protein as the ALPK1 phosphorylation substrate. Since phosphorylated TIFA proteins oligomerize, Homogeneous Time-Resolved Fluorescence (HTRF) was used to measure protein:protein interaction between HA-tagged TIFA proteins as an indicator of TIFA phosphorylation.
In brief, dose-response studies were performed with HEK293 cells cultured in Dulbecco's Modified Eagle Medium (DMEM) supplemented 10% fetal bovine serum (FBS, Hyclone™) containing antibiotics (pen/strep, G418) in 384-well assay plates. Each well contained 0.1 mg TIFA, ALPK1 (2 nM final concentration in reaction mixture) and kinase buffer (100 mM of HEPES pH 7.4, 4 mM DTT, 40 mM MgCl2, 20 mM of β-Glycerol phosphate disodium salt, 0.4 mM of Na3VO4, 0.16 mg/mL). Titrations of the test compounds were prepared in dimethylsulphoxide (DMSO). The reaction was initiated by addition of ATP and ADP-Heptose.
For HTRF, samples were incubated with a Tb cryptate-labeled anti-HA antibody for capturing HA-tagged proteins according to the manufacturer's instructions (PerkinElmer™, CisBio™) and the fluorescence signal was quantified (Tecan Infinite F NANO+). HTRF signals were calculated as the HTRF ratio (ratio of fluorescence measured at 665 nm and 620 nm)×104 (thereby using the signal at 620 nm as an internal standard).
IC50 values were determined using 3- or 4-parameter logistic equation using GraphPad Prism version 6.00. The reference compound, A027, was used as a positive control for each plate.
(In general: Time-resolved FRET reads energy transfer from a long-lived donor to a nearby acceptor.)

Setting [1] is: ALPK1 2 nM, TIFA substrate, ADP-Heptose activator, HTRF readout.

Structures can show the parent of a compound that is named as a salt. Where two headings read alike, the source gives them in different places.

Sequence of ALPK1 (Q96QP1 whole entry): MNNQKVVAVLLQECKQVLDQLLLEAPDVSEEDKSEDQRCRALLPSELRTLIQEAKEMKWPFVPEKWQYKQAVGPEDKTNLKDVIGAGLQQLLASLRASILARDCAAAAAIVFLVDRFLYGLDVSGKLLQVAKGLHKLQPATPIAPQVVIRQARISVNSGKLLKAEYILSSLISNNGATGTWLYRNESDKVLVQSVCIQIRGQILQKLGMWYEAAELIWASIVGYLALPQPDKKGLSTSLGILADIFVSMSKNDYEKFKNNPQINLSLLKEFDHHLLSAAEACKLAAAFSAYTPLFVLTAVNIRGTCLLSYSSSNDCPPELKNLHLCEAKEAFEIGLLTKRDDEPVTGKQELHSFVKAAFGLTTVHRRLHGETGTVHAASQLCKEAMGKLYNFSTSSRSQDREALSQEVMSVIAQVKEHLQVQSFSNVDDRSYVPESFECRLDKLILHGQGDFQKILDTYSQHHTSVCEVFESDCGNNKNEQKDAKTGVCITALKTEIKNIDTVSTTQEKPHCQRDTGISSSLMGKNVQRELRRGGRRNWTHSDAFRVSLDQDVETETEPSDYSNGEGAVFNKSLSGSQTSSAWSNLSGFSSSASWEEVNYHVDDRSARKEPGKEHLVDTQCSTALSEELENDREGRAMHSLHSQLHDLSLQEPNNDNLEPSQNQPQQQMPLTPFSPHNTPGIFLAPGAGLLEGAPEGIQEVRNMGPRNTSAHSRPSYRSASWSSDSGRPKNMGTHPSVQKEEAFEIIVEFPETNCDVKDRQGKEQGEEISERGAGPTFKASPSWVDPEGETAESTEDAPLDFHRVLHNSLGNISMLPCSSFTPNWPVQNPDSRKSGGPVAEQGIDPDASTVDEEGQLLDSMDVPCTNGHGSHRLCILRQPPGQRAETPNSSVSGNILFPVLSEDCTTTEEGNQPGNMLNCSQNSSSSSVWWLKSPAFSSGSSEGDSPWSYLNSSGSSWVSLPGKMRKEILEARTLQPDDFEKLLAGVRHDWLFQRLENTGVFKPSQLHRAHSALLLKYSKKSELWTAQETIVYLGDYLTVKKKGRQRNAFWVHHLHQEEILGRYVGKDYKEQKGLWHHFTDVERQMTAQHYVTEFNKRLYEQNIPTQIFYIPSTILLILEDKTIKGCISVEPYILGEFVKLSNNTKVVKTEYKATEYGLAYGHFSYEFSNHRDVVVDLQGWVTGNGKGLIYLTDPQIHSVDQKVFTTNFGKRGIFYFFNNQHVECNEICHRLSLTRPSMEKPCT

Consider `CN1CCN(c2cc(F)c(C(=O)Nc3nc(C4(c5ccc(Br)cc5)CCCC4)cs3)c(F)c2)CC1` [Example C030, N-(4-(1-(4-bromophenyl)cyclopentyl)thiazol-2-yl)-2,6-difluoro-4-(4-methylpiperazin-1-yl)benzamide], for which, under setting [1], the IC50 – broadly, the concentration that gives 50% inhibition – turned out to be 1770 nM.

For the compound `COc1ccc(C(C)(C)c2csc(NC(=O)NCC(=O)CO)n2)cc1` [Example A074, 1-(3-hydroxy-2-oxopropyl)-3-(4-(2-(4-methoxyphenyl)propan-2-yl)thiazol-2-yl)urea], 61 nM corresponded to half-maximal inhibition (IC50). In turn, `C#C[C@@](C)(c1ccc(F)cc1)c1csc(NC(=O)c2c(F)cc(N3CCC(N)C3)cc2F)n1` (stereo in doubt) [Example B090, 4-(3-aminopyrrolidin-1-yl)-2,6-difluoro-N-(4-(2-(4-fluorophenyl)but-3-yn-2-yl)thiazol-2-yl)benzamide] registered an IC50 under setting [1] of 107 nM.

Turning to `COc1ccc(C(C)(C)c2csc(NC(=O)NCc3ccc(N4CCNCC4)c(C(=O)N(C)C)c3)n2)cc1` [Example A185, 5-((3-(4-(2-(4-methoxyphenyl)propan-2-yl)thiazol-2-yl)ureido)methyl)-N,N-dimethyl-2-(piperazin-1-yl)benzamide], inhibition was half-maximal at 56 nM (IC50). Under setting [1], `CN(C)CCNc1ccc(C(=O)Nc2nc(C(C)(C)c3ccc(Br)cc3)cs2)cn1` [Example B055, N-(4-(2-(4-bromophenyl)propan-2-yl)thiazol-2-yl)-6-((2-(dimethylamino)ethyl)amino)nicotinamide] displayed an IC50 of 125 nM. Compound `C#C[C@](C)(c1csc(NC(=O)c2c(F)cc(N3CCNCC3)cc2F)n1)c1ccc(Cl)cc1F` (stereo in doubt) [Example C044, N-(4-(2-(4-chloro-2-fluorophenyl)but-3-yn-2-yl)thiazol-2-yl)-2,6-difluoro-4-(piperazin-1-yl)benzamide] gave an IC50 under setting [1] of 25 nM.

For `CC(C)(c1ccc(Br)cc1)c1csc(NC(=O)c2ccc(C(N)=O)cc2)n1` [Example B003, N-(4-(2-(4-bromophenyl)propan-2-yl)thiazol-2-yl)terephthalamide], the IC50 under setting [1] is 192 nM. The compound `Cc1ccc(C(C)(C)c2csc(NC(=O)c3ccc(CN4CCN(CCO)CC4)cc3)n2)cc1` [Example B058, 4-((4-(2-hydroxyethyl)piperazin-1-yl)methyl)-N-(4-(2-(p-tolyl)propan-2-yl)thiazol-2-yl)benzamide] gave an IC50 under setting [1] of 68 nM. Same read-out and setting: under `CC(C)(c1ccc(Br)cc1)c1csc(NC(=O)c2ccc(N3CCN(CCO)CC3)nc2)n1` [Example B054, N-(4-(2-(4-bromophenyl)propan-2-yl)thiazol-2-yl)-6-(4-(2-hydroxyethyl)piperazin-1-yl)nicotinamide] stands 269 nM; under `COCCOc1cc(C(=O)Nc2nc(C(C)(C)c3ccc(OC)cc3)cs2)ccc1N1CCNCC1` [Example B057, 3-(2-methoxyethoxy)-N-(4-(2-(4-methoxyphenyl)propan-2-yl)thiazol-2-yl)-4-(piperazin-1-yl)benzamide hydrochloride], 103 nM. For `COc1ccc(C(C)(C)c2csc(NC(=O)c3cccc(N4CCNCC4)c3)n2)cc1` [Example B004, N-(4-(2-(4-methoxyphenyl)propan-2-yl)thiazol-2-yl)-3-(piperazin-1-yl)benzamide], under setting [1], half-maximal inhibition (IC50) was put at 211 nM. In turn, `CC(C)(c1ccc(Cl)cc1)c1csc(NC(=O)NCc2cnc(N3CCC(N)C3)nc2)n1` (centres unmarked) [Example A068, 1-((2-(3-aminopyrrolidin-1-yl)pyrimidin-5-yl)methyl)-3-(4-(2-(4-chlorophenyl)propan-2-yl)thiazol-2-yl)urea] had an IC50 of 269 nM. Turning to `C#CC(C)(c1ccc(Cl)cc1)c1csc(NC(=O)c2ccc(N3CCNCC3)cc2F)n1` (centres unmarked) [Example B065, N-(4-(2-(4-chlorophenyl)but-3-yn-2-yl)thiazol-2-yl)-2-fluoro-4-(piperazin-1-yl)benzamide], half-maximal inhibition under setting [1] (IC50) was put at 215 nM.

Compound `COc1ccc(C(C)(C)c2csc(NC(=O)c3ccc(C4CCNCC4)cc3)n2)cc1` [Example B047, N-(4-(2-(4-methoxyphenyl)propan-2-yl)thiazol-2-yl)-4-(piperidin-4-yl)benzamide hydrochloride] yielded an IC50 under setting [1] of 128 nM. The compound `C#C[C@@](C)(c1csc(NC(=O)c2c(F)cc(N3CCNCC3)cc2F)n1)c1ccc(Cl)cc1F` (stereo in doubt) [Example C043, N-(4-(2-(4-chloro-2-fluorophenyl)but-3-yn-2-yl)thiazol-2-yl)-2,6-difluoro-4-(piperazin-1-yl)benzamide] came in with an IC50 under setting [1] of 285 nM. Under setting [1], `C#CC(C)(c1ccc(Cl)cc1)c1csc(NC(=O)c2ccc(N3CCNCC3)c(OC)c2)n1` (centres unmarked) [Example B066, N-(4-(2-(4-chlorophenyl)but-3-yn-2-yl)thiazol-2-yl)-3-methoxy-4-(piperazin-1-yl)benzamide] registered an IC50 of 184 nM. The compound `C#CC(CC)(c1ccc(Br)cc1)c1csc(NC(C)=O)n1` (centres unmarked) [Example D008, N-(4-(3-(4-bromophenyl)pent-1-yn-3-yl)thiazol-2-yl)acetamide] yielded an IC50 under setting [1] of 143 nM.

Turning to `C#CC(C)(c1ccc(Cl)cc1)c1csc(NC(=O)N(C)CCO)n1` (centres unmarked) [Example A266, 3-(4-(2-(4-chlorophenyl)but-3-yn-2-yl)thiazol-2-yl)-1-(2-hydroxyethyl)-1-methylurea], 546 nM corresponded to half-maximal inhibition (IC50). Under setting [1], `C#C[C@](C)(c1ccc(F)cc1)c1csc(NC(=O)c2ccc(N3CCNCC3CO)cc2)n1` (stereo in doubt) [Example B070, N-[4-[1-(4-fluorophenyl)-1-methyl-prop-2-ynyl]thiazol-2-yl]-4-[2-(hydroxymethyl)piperazin-1-yl]benzamide] displayed an IC50 of 169 nM. Take `O=C(Nc1nc(C2(c3ccc(Br)cc3)CCCC2)cs1)c1c(F)cc(N2CCNCC2)cc1F` [Example C026, N-(4-(1-(4-bromophenyl)cyclopentyl)thiazol-2-yl)-2,6-difluoro-4-(piperazin-1-yl)benzamide]: under setting [1], half-maximal inhibition (IC50) required 437 nM. As for `COC[C@](C)(c1ccc(Cl)cc1)c1csc(NC(=O)c2c(F)cc(N3CCNCC3)cc2F)n1` [Example C024, (R)-N-(4-(2-(4-chlorophenyl)-1-methoxypropan-2-yl)thiazol-2-yl)-2,6-difluoro-4-(piperazin-1-yl)benzamide], 130 nM corresponded to half-maximal inhibition under setting [1] (IC50). In turn, `C#CC(C)(c1ccc(Cl)cc1)c1csc(NC(=O)c2c(Cl)cc(N3CCNCC3)cc2Cl)n1` (centres unmarked) [Example B096, 2,6-dichloro-N-(4-(2-(4-chlorophenyl)but-3-yn-2-yl)thiazol-2-yl)-4-(piperazin-1-yl)benzamide] yielded an IC50 under setting [1] of 312 nM. As to `C#CC(C)(c1ccc(F)cc1)c1csc(NC(=O)c2c(F)cc(N3CCNC(CO)C3)cc2F)n1` (centres unmarked) [Example B082, 2,6-difluoro-N-(4-(2-(4-fluorophenyl)but-3-yn-2-yl)thiazol-2-yl)-4-(3-(hydroxymethyl)piperazin-1-yl)benzamide], under setting [1], inhibition was half-maximal at 25 nM (IC50). For `COc1ccc(C(C)(C)c2csc(NC(=O)NCc3cnc(N4CCNCC4)c(C(N)=O)c3)n2)cc1` [Example A209, 5-((3-(4-(2-(4-methoxyphenyl)propan-2-yl)thiazol-2-yl)ureido)methyl)-2-(piperazin-1-yl)nicotinamide], the concentration for half-maximal inhibition (IC50) worked out at 43 nM. In turn, `COc1ccc(C(C)(C)c2csc(NC(=O)NCc3ccc(NCCO)cc3)n2)cc1` [Example A109, 1-(4-((2-hydroxyethyl)amino)ben-zyl)-3-(4-(2-(4-methoxyphenyl)propan-2-yl)thiazol-2-yl)urea] displayed an IC50 of 146 nM. With `COC[C@@](C)(c1ccc(Cl)cc1)c1csc(NC(=O)c2c(F)cc(N3CCNCC3)cc2F)n1` [Example C025, (S)-N-(4-(2-(4-chlorophenyl)-1-methoxypropan-2-yl)thiazol-2-yl)-2,6-difluoro-4-(piperazin-1-yl)benzamide], the midpoint of inhibition under setting [1], the IC50, lay at 8 nM. Under setting [1], `C#C[C@](C)(c1ccc(Cl)cc1)c1csc(NC(=O)c2c(F)cc(N3CCNCC3CO)cc2F)n1` (stereo in doubt) [Example B098, N-[4-[1-(4-chlorophenyl)-1-methyl-prop-2-ynyl]thiazol-2-yl]-2,6-difluoro-4-[2-(hydroxymethyl)piperazin-1-yl]benzamide] had an IC50 of 20 nM. Consider `COC[C@](C)(c1ccccc1)c1csc(NC(=O)c2c(F)cc(N3CCNCC3)cc2F)n1` [Example C017, (R)-2,6-difluoro-N-(4-(1-methoxy-2-phenylpropan-2-yl)thiazol-2-yl)-4-(piperazin-1-yl)benzamide], for which the IC50 under setting [1] turned out to be 67 nM. The compound `CC(C)(c1ccc(Br)cc1)c1csc(NC(=O)NCc2ccc(N3CCC(C(N)=O)CC3)cc2)n1` [Example A006, 1-(4-((3-(4-(2-(4-bromophenyl)propan-2-yl)thiazol-2-yl)ureido)methyl)phenyl) piperidine-4-carboxamide] displayed an IC50 of 104 nM.
